Measurements as given in patent US12195467B2, “Compound having TrkA inhibitory activity and pharmaceutical composition, for preventing or alleviating pain, containing same as active ingredient” (JBKLAB CO., LTD., priority 2018, dated 2025).

Experiments:
TrkA = biological target: T1, TrkA (Homo sapiens, UniProt P04629); experiment: TrkA inhibitory activity, CycLex TrkA kinase assay/inhibitor screening kit; format: biochemical; conditions: for inhibition at 1 µM: compound 1 μM, read-out: % inhibition rate (based on 1 μM)
T1 construct: purchased MBL International (CycLex) CY-1091
Protocol: The TrkA inhibitory activity of the compounds was evaluated using CycLex® TrkA kinase assay/inhibitor screening kit of MBL International (Cat No. CY-1091). The test was carried out according to the analysis method provided by the manufacturer. The test method is as follows.
1. 1× wash buffer was prepared by diluting 10× wash buffer in ddH2O.
2. 20×ATP solution (1.25 mM) was prepared by adding 1.6 mL of distilled water to the tube containing ATP dissolved in NA2 salt and freeze-dried.
4. A working solution mixture and a solution of the appropriate concentration of the example compound to evaluate the activity of the example compound were prepared and dispensed into a 96-well plate as shown in table below.
5. After dispensing the solutions into a 96-well plate, the plate was incubated at 30° C. for 30 minutes.
6. After incubation of the plate at 30° C. for 30 minutes, 200 μL of 1× wash buffer was added into each well of the plate, followed by washing. This process was repeated 5 times.
7. After washing the plate, 100 μL of HRP conjugated detection antibody (PX-39) was added into each well of the plate, followed by reaction at room temperature for 60 minutes.
8. Upon completion of the reaction, 200 μL of 1× wash buffer was added into each well of the plate, followed by washing. This process was repeated 5 times.
9. After washing the plate, 100 μL of substrate reagent containing chromogenic substrate and tetra-methylbenzidine (TMB) was added into each well of the plate, followed by incubation at room temperature for 5-15 minutes.
10. Upon completion of the reaction, 100 μL of stop solution (1 N H2SO4) was added into each well of the plate, followed by measuring OD450 within 30 minutes.

TrkB = biological target: T2, TrkB (Homo sapiens, UniProt Q16620); experiment: PathHunter eXpress TrkB functional assay kit (U2OS cells, agonist BDNF); format: cell-based; conditions: for inhibition at 1 µM: compound 1 μM, read-out: TrkB % inhibition rate (based on 1 μM)
T2 construct: host or cells: U2OS
Protocol: (§1) The inhibitory activity of the example compounds against TrkB and TrkC was evaluated using PathHunter® eXpress TrkB or TrkC functional assay kit (Product Code: 93-0463E3 and 93-0464E3) of DiscoverX. The test was carried out according to the analysis method provided by the manufacturer. The test was carried out as follows over 2 or 3 days depending on the conditions of cells.
(§2) 1. Before starting the experiment, the cell plating (CP) reagent stored at −80° C. was dissolved in a 37° C. water bath.
(§3) 2. When the CP reagent was dissolved, cell vials for TrkB or TrkC were prepared to be dissolved.
(§4) 3. Two U2OS cell vials (TrkB kit & TrkC kit) stored in liquid nitrogen were thawed.
(§5) 4. 500 μL of CP reagent was added to the thawed cell vial, and the cells were sufficiently mixed by pipetting and transferred to a Conical tube in which 11.5 mL of CP reagent was dispensed.
(§6) 5. 12 mL cells (1×10^6 cells in CP reagent) were seeded on a 96-well tissue culture treated plate (100 μL/well), followed by culture in a 37° C., 5% CO2 humidified incubator for 24 hours or 48 hours.
(§7) Day 2 or Day 3: Treatment of Test Material
(§8) 1. Test material, agonist and antagonist were prepared as stock solutions according to the experiment design. • Test material: 10 mM Stock solution in DMSO • Antagonist (GNF-5837): 10 mM Stock solution in 1.8674 mL DMSO • Agonist: TrkB agonist→BDNF, TrkC agonist→NT-3
(§9) 2. 10 mM stock solutions of teat material and antagonist having the concentration of 22 times more concentrated than the final screening concentration were prepared according to the experiment design.
(§10) 3. Each well of the 96-well culture plate containing cells was treated with 5 μL of the solutions of teat material and antagonist having the concentration of 22 times more concentrated than the final screening concentration (#2), followed by incubation at 37° C. for 60 minutes.
(§11) 4. During the incubation, 10 μg/mL stock solution of each agonist for TrkB and TrkC was prepared using a reconstitution buffer for the purpose of the experiment, and each well of the plate was treated with 5 μL of the prepared solution, followed by incubation at 19-25° C. for 3 hours.
(§12) 5. During the incubation, a detection reagent working solution (4.75 ml Cell assay buffer, 1.25 ml Substrate Reagent 1, 0.25 ml Substrate Reagent 2) was prepared. Upon completion of the incubation, 55 μL of the working solution was added into each well of the plate.
(§13) 7. The plate was incubated at room temperature for 60 minutes in a dark place, and the […] was measured with a luminescence plate reader.

TrkC = biological target: T3, TrkC (Homo sapiens, UniProt Q16288); experiment: PathHunter eXpress TrkC functional assay kit (U2OS cells, agonist NT-3); format: cell-based; conditions: compound 1 μM, read-out: TrkC % inhibition rate (based on 1 μM)
T3 construct: host or cells: U2OS
Protocol: as §1, §2, §3, §4, §5, §6, §7, §8, §9, §10, §11, §12, §13

[1] = system: postoperative pain animal model; experiment: Pharmacological activity in postoperative pain model (von-Frey mechanical allodynia, 50% withdrawal threshold); format: in vivo, Sprague-Dawley male rats
Protocol: Sprague-Dawley male rats weighing around 150 g (Orient bio., Korea) were used. Rats were raised in an environment where a 12-hour light-dark cycle was maintained, 4 per transparent plastic cage covered with scob as bedding. Food and water were provided freely. To verify the analgesic effect of the example compounds, all rats were anesthetized with O2 delivered from the induction chamber at a ratio of 3:3 of isoflurane and operated. Anesthetized rats were placed on a 37° C. warm plate to prevent hypothermia during the operation. The ipsilateral sole (left) of the hind paw of the experimental animal was disinfected with 10% povidone-iodine solution, and incised to a length of 1 cm with a #11 surgical knife. The incision was made starting from 0.5 cm of the proximal edge of the heel through the skin and fascia on the side of the ipsilateral sole toward the toe. After the incision, a gentle pressure was applied to the incision site to stop the bleeding and the skin was sutured. The surgical site was sterilized with 10% povidone-iodine solution, and gentamicin (8 mg/kg) was administered intraperitoneally to prevent infection. The analgesic effect of the compound on postoperative pain was evaluated in the experimental animals 2 days after the surgery. […] The formula for calculating the 50% withdrawal threshold (g) is as follows. 50% Withdrawal threshold (g)=(10^(x+kd))/10^4 [Mathematical Formula 1] • x=the value of the last tested filament (log unit value). • k=the value indicating positive/negative reaction by up-down method. • d=the value fixed at 0.224 as the average difference between stimuli.

T1 sequence (P04629 33-796): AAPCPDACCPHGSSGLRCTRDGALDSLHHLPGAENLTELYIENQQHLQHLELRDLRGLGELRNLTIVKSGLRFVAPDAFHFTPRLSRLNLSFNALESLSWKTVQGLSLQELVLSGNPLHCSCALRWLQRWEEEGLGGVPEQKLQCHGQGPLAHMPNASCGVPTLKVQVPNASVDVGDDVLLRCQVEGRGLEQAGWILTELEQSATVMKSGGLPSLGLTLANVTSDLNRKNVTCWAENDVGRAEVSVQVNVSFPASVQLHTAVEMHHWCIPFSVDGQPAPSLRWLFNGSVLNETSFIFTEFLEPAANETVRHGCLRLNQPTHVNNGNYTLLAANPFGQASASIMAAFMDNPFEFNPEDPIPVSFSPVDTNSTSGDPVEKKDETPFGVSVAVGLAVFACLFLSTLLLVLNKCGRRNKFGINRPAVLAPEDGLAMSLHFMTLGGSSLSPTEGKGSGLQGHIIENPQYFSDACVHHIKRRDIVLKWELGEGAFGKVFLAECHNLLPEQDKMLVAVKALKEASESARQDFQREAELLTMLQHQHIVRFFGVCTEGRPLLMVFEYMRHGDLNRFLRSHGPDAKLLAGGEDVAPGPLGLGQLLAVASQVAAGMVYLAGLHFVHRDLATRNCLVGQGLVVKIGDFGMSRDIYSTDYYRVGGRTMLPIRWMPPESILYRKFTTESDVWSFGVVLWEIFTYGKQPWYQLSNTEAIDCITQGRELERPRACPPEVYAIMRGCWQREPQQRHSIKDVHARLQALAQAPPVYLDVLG
T2 sequence (Q16620 32-822): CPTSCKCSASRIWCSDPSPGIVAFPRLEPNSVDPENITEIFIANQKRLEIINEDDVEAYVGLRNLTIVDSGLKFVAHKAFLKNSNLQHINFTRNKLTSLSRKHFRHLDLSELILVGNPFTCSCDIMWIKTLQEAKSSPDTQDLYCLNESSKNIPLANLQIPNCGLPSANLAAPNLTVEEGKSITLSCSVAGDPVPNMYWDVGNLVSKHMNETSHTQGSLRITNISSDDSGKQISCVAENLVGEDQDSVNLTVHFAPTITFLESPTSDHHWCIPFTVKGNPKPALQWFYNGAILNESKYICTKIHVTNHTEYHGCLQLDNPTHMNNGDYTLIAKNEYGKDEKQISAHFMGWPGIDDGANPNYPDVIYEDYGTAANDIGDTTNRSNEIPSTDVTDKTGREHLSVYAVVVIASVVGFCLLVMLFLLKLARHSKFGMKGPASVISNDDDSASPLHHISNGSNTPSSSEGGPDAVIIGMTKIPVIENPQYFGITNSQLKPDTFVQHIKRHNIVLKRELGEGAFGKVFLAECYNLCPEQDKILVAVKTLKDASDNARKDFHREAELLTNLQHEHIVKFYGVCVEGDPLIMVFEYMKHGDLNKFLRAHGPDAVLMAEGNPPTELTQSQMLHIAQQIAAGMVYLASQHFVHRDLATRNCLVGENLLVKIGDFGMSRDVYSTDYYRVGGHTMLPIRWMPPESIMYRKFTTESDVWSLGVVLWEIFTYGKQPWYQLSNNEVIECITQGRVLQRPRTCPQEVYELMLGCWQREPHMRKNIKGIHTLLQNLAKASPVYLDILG
T3 sequence (Q16288 32-839): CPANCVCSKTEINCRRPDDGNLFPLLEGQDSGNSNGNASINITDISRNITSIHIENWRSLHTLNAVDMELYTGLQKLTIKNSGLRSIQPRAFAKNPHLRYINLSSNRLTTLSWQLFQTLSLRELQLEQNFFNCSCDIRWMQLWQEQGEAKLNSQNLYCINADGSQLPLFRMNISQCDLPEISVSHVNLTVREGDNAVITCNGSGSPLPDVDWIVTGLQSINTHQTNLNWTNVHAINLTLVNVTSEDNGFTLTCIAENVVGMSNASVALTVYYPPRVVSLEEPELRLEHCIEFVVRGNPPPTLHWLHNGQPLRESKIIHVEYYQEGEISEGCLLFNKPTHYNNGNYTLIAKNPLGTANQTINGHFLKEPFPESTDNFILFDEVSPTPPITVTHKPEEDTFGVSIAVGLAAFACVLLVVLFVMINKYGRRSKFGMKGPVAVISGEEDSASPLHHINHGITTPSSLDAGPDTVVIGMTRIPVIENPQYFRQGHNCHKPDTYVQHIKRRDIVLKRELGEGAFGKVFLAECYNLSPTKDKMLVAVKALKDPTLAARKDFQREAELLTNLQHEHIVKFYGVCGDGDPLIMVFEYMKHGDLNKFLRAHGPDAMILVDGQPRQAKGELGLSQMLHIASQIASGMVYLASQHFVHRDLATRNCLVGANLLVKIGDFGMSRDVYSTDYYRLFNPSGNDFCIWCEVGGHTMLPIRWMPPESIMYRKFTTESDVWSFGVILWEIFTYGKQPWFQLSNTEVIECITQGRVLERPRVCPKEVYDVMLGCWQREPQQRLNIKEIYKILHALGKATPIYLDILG

| Structure (SMILES) | inhibition at 1 µM (TrkA) | other results |
| --- | --- | --- |
| Clc1cccc(Nc2n[nH]c3cnc(-c4cccnc4)cc23)c1 [Example 1, N-(3-chlorophenyl)-5-(pyridine-3-yl)-1H-pyrazolo[3,4-c]pyridine-3-amine] | 12% | – |
| Clc1ccc(Nc2n[nH]c3cnc(-c4cnn(C5CCNCC5)c4)cc23)cc1Cl [Example 2, N-(3,4-dichlorophenyl)-5-(1-(piperidine-4-yl)-1H-pyrazole-4-yl)-1H-pyrazolo[3,4-c]pyridine-3-amine] | 6% | – |
| Clc1cc(Cl)cc(Nc2n[nH]c3cnc(-c4cnn(C5CCNCC5)c4)cc23)c1 [Example 3, N-(3,5-dichlorophenyl)-5-(1-(piperidine-4-yl)-1H-pyrazole-4-yl)-1H-pyrazolo[3,4-c]pyridine-3-amine] | 6% | – |
| Cn1cc(-c2cnc3[nH]nc(Nc4cccc(Cl)c4)c3c2)cn1 [Example 4, N-(3-chlorophenyl)-5-(1-methyl-1H-pyrazole-4-yl)-1H-pyrazolo[3,4-b]pyridine-3-amine] | 59% | – |
| Cn1cc(-c2cnc3[nH]nc(Nc4ccc(Cl)c(Cl)c4)c3c2)cn1 [Example 5, N-(3,4-dichlorophenyl)-5-(1-methyl-1H-pyrazole-4-yl)-1H-pyrazolo[3,4-b]pyridine-3-amine] | 32% | – |
| Cn1cc(-c2cnc3[nH]nc(Nc4cc(Cl)cc(Cl)c4)c3c2)cn1 [Example 6, N-(3,5-dichlorophenyl)-5-(1-methyl-1H-pyrazole-4-yl)-1H-pyrazolo[3,4-b]pyridine-3-amine] | 32% | – |
| Clc1cc(Cl)cc(Nc2n[nH]c3ncc(-c4cnn(C5CCNCC5)c4)cc23)c1 [Example 7, N-(3,5-dichlorophenyl)-5-(1-(piperidine-4-yl)-1H-pyrazole-4-yl)-1H-pyrazolo[3,4-b]pyridine-3-amine] | 37% | – |
| CN1CCN(c2ccc(C(=O)Nc3n[nH]c4ncc(-c5cnn(C6CCNCC6)c5)cc34)cc2)CC1 [Example 8, 4-(4-methylpiperazine-1-yl)-N-(5-(1-(piperidine-4-yl)-1H-pyrazole-4-yl)-1H-pyrazolo[3,4-b]pyridine-3-yl)benzamide] | 99% | – |
| CC(C)NC(=O)Nc1cccc(-c2cnc3[nH]nc(NC(=O)c4ccc(N5CCN(C)CC5)cc4)c3c2)c1 [Example 9, N-(5-(3-(3-isopropylureido)phenyl)-1H-pyrazolo[3,4-b]pyridine-3-yl)-4-(4-methylpiperazine-1-yl)benzamide] | 81% | inhibition at 1 µM (TrkB): 1%; inhibition at 1 µM (TrkC): -20% |
| CN1CCN(c2ccc(C(=O)Nc3n[nH]c4ncc(-c5ccc(F)cc5)cc34)cc2)CC1 [Example 11, N-(5-(4-fluorophenyl)-1H-pyrazolo[3,4-b]pyridine-3-yl)-4-(4-methylpiperazine-1-yl)benzamide] | 99% | inhibition at 1 µM (TrkB): 17%; inhibition at 1 µM (TrkC): 9%; IC50 (TrkA): 218 nM |
| COc1ccc(Cn2cc(NC(=O)c3ccc(N4CCN(C)CC4)cc3)c3c(-c4cnn(C5CCNCC5)c4)ncnc32)cc1 [Example 16, N-(7-(4-methoxybenzyl)-4-(1-(piperidine-4-yl)-1H-pyrazole-4-yl)-7H-pyrrolo[2,3-d]pyrimidine-5-yl)-4-(4-methylpiperazine-1-yl)benzamide] | 8% | – |
| CN1CCN(c2ccc(C(=O)Nc3c[nH]c4ncnc(-c5cnn(C6CCNCC6)c5)c34)cc2)CC1 [Example 17, 4-(4-methylpiperazine-1-yl)-N-(4-(1-(piperidine-4-yl)-1H-pyrazole-4-yl)-7H-pyrrolo[2,3-d]pyrimidine-5-yl)benzamide] | -11% | – |
| CN1CCN(c2ccc(C(=O)Nc3c[nH]c4ncnc(-c5cnn(C6CCN(C(=O)OC(C)(C)C)CC6)c5)c34)cc2)CC1 [Example 18, tert-butyl 4-(4-(5-(4-(4-methylpiperazine-1-yl)benzamido)-7H-pyrrolo[2,3-d]pyrimidine-4-yl)-1H-pyrazole-1-yl)piperidine-1-carboxylate] | 24% | – |
| CN1CCN(c2ccc(C(=O)Nc3c[nH]c4ncnc(N5CCC(N6CCCC6)CC5)c34)cc2)CC1 [Example 19, 4-(4-methylpiperazine-1-yl)-N-(4-(4-(pyrrolidine-1-yl)piperidine-1-yl)-7H-pyrrolo[2,3-d]pyrimidine-5-yl)benzamide] | -1% | – |
| CN1CCN(c2ccc(C(=O)Nc3c[nH]c4ncnc(N5CCC(C(N)=O)CC5)c34)cc2)CC1 [Example 20, 1-(5-(4-(4-methylpiperazine-1-yl)benzamido)-7H-pyrrolo[2,3-d]pyrimidine-4-yl)piperidine-4-carboxamide] | 4% | – |
| CN1CCN(c2ccc(C(=O)Nc3c[nH]c4ncnc(N5CCCC(NC(N)=O)C5)c34)cc2)CC1 (stereo not drawn) [Example 21, 4-(4-methylpiperazine-1-yl)-N-(4-(3-ureidopiperidine-1-yl)-7H-pyrrolo[2,3-d]pyrimidine-5-yl)benzamide] | 0% | – |
| O=C(Nc1n[nH]c2ncc(-c3cnn(C4CCNCC4)c3)cc12)c1ccc(F)cc1 [Example 22, 4-fluoro-N-(5-(1-(piperidine-4-yl)-1H-pyrazole-4-yl)-1H-pyrazolo[3,4-b]pyridine-3-yl)benzamide] | 99% | inhibition at 1 µM (TrkB): -2%; inhibition at 1 µM (TrkC): 20%; IC50 (TrkA): 436 nM |
| Oc1c(Cl)cc(-c2c[nH]c3ncnc(NC4CCC(O)CC4)c23)cc1Cl (stereo not drawn) [Example 23, 2,6-dichloro-4-(4-((1s,4s)-4-hydroxycyclohexylamino)-7H-pyrrolo[2,3-d]pyrimidine-5-yl)phenol] | 100% | IC50 (TrkB): 894 nM; inhibition at 1 µM (TrkB): 56%; inhibition at 1 µM (TrkC): 15%; IC50 (TrkA): 57.9 nM |
| CN1CCN(c2ccc(C(=O)Nc3c[nH]c4ncnc(-c5cc(Cl)c(O)c(Cl)c5)c34)cc2)CC1 [Example 24, N-(4-(3,5-dichloro-4-hydroxyphenyl)-7H-pyrrolo[2,3-d]pyrimidine-5-yl)-4-(4-methylpiperazine-1-yl)benzamide] | 49% | – |
| CC(C)C[C@H](CN)CC(=O)O [Lyrica, Pregabalin, reference compound] | – | ED50 ([1]; Rattus norvegicus, po, 48 h): 17.5 mg/kg; Maximum duration of drug efficacy ([1]; oral, rat postoperative pain model, 2 days after surgery): 1.0 h |
